Results on 6 compounds are retold here after ChEMBL document CHEMBL4028820, “Novel bioactive molecules from Lentzea violacea strain AS 08 using one strain-many compounds (OSMAC) approach” (Bioorg Med Chem Lett, 2017).

In brackets after ≈: the same amount, converted by molar mass.

The test system of one assay is Enterococcus faecalis. Nature of the assay: Antibacterial activity against Enterococcus faecalis ATCC 51299 after 20 to 24 hrs by broth microdilution method. Type of assay: functional. (In general: In broth dilution the organism is exposed to a series of concentrations in liquid medium.)
In assay [1] the test system is Staphylococcus epidermidis. The assay is described as follows: Antibacterial activity against Staphylococcus epidermidis ATCC 12228 after 20 to 24 hrs by broth microdilution method. The assay is classed as functional.
In a further assay the test system is Escherichia coli. The assay is described as follows: Antibacterial activity against Escherichia coli ATCC 10536 after 20 to 24 hrs by broth microdilution method. The assay is classed as functional.
The next assay has as its system Pseudomonas aeruginosa. Nature of the assay: Antibacterial activity against Pseudomonas aeruginosa ATCC 10145 after 20 to 24 hrs by broth microdilution method. The assay is classed as functional.
The test system of the next assay is Klebsiella pneumoniae. Nature of the assay: Antibacterial activity against Klebsiella pneumoniae ATCC BAA-2146 after 20 to 24 hrs by broth microdilution method. The assay is classed as functional.
The next assay relates to Micrococcus luteus. The assay is described as follows: Antibacterial activity against Micrococcus luteus ATCC 10240 after 20 to 24 hrs by broth microdilution method. Type of assay: functional.
A further assay has as its system Staphylococcus aureus. Nature of the assay: Antibacterial activity against Staphylococcus aureus ATCC 25923 after 20 to 24 hrs by broth microdilution method. The assay is classed as functional.
In the next assay the test system is Bacillus subtilis. The assay is described as follows: Antibacterial activity against Bacillus subtilis ATCC 11774 after 20 to 24 hrs by broth microdilution method. Type of assay: functional.
The test system of another assay is HepG2. Nature of the assay: Antiproliferative activity against human HepG2 cells after 48 hrs by MTT assay. The following applies: HepG2, 48 h. The assay is classed as functional, cell-based. Background: Tetrazolium dyes change colour on reduction, which living cells bring about.
For the next assay, the system named is A549. The assay is described as follows: Antiproliferative activity against human A549 cells after 48 hrs by MTT assay. The assay is classed as functional, cell-based. The conditions noted are these: A549, 48 h.
The test system of the next assay is T47D. The assay is described as follows: Antiproliferative activity against human T47D cells after 48 hrs by MTT assay. The assay is classed as functional, cell-based.
For a further assay, the system named is HCT-116. The assay is described as follows: Antiproliferative activity against human HCT116 cells after 48 hrs by MTT assay. Type of assay: functional, cell-based. The following applies: HCT-116, 48 h.

With `NCC[C@H](O)C(=O)N[C@@H]1C[C@H](N)[C@@H](O[C@H]2O[C@H](CN)[C@@H](O)[C@H](O)[C@H]2O)[C@H](O)[C@H]1O[C@H]1O[C@H](CO)[C@@H](O)[C@H](N)[C@H]1O` [AMIKACIN], the MIC (in general, the smallest concentration in the dilution series that meets the test's criterion for growth inhibition) is 0.39 µg/mL (≈ 0.666 µM) in the assay on Enterococcus faecalis; 2.5 µg/mL (≈ 4.27 µM) in assay [1]; 0.312 to 0.625 µg/mL (≈ 0.533 to 1.07 µM) in the assay on Escherichia coli; 2.5 µg/mL (≈ 4.27 µM) against Pseudomonas aeruginosa; 5 µg/mL (≈ 8.54 µM) with Klebsiella pneumoniae; 0.39 µg/mL (≈ 0.666 µM) in the assay on Micrococcus luteus. The MIC is 2.5 µg/mL (≈ 4.27 µM) against Staphylococcus aureus and 0.625 µg/mL (≈ 1.07 µM) in the assay with Bacillus subtilis.

As to `CCCCOC(=O)c1ccccc1C(=O)OCC(C)C`, the MIC (with Enterococcus faecalis; in assay [1]; in the assay on Escherichia coli; in the assay on Pseudomonas aeruginosa; against Klebsiella pneumoniae; in the assay with Micrococcus luteus) was above 128 µg/mL throughout. For the same compound, the MIC against Staphylococcus aureus and with Bacillus subtilis was above 128 µg/mL in each case. Besides, the IC50 (commonly the midpoint of a concentration-inhibition curve) in the assay with HepG2 turned out to be 53.3 µM; in the assay on A549, 38 µM; with T47D, 48.7 µM; in the assay with HCT-116, 36.1 µM.

Regarding `O=c1[nH]cc(F)c(=O)[nH]1` [FLUOROURACIL], the IC50 with HepG2 is 20.1 µM; in the assay on A549, 15.1 µM; in the assay with T47D, 12.1 µM; with HCT-116, 26.2 µM.

Turning to `CC1=C2C(O)C(C(C)CO)CCC2(C)C=CC1=O` (stereo unspecified), the MIC was 128 µg/mL (≈ 511 µM) against Enterococcus faecalis; above 128 µg/mL in assay [1]; 32 µg/mL (≈ 128 µM) in the assay on Escherichia coli; 64 µg/mL (≈ 256 µM) in the assay with Pseudomonas aeruginosa; 32 µg/mL (≈ 128 µM) against Klebsiella pneumoniae; 128 µg/mL (≈ 511 µM) against Micrococcus luteus. Besides, the MIC turned out to be 64 µg/mL (≈ 256 µM) with Staphylococcus aureus and 128 µg/mL (≈ 511 µM) in the assay on Bacillus subtilis. Also, the IC50 in the assay with HepG2 worked out at 38.8 µM; in the assay on A549, 22.3 µM; with T47D it was 26.7 µM; in the assay with HCT-116, 19.2 µM.

In the case of `CC(C)CC[C@H](O)[C@@H]1C(=O)OC[C@H]1CO`, the MIC against Enterococcus faecalis was determined as 128 µg/mL (≈ 592 µM); in assay [1] it was 128 µg/mL (≈ 592 µM); against Escherichia coli it was 32 µg/mL (≈ 148 µM); with Pseudomonas aeruginosa, 32 µg/mL (≈ 148 µM); in the assay with Klebsiella pneumoniae, 64 µg/mL (≈ 296 µM); in the assay on Micrococcus luteus it was 128 µg/mL (≈ 592 µM). The MIC against Staphylococcus aureus came to 64 µg/mL (≈ 296 µM); against Bacillus subtilis, 128 µg/mL (≈ 592 µM). The IC50 in the assay on HepG2 is above 100 µM; with A549, 71.5 µM; in the assay with T47D, above 100 µM; in the assay with HCT-116, 62.3 µM.

As to `C[C@H]1COc2c(N3CCN(C)CC3)c(F)cc3c(=O)c(C(=O)O)cn1c23.C[C@H]1COc2c(N3CCN(C)CC3)c(F)cc3c(=O)c(C(=O)O)cn1c23.O` [LEVOFLOXACIN], the MIC was 0.156 µg/mL in the assay with Enterococcus faecalis; 0.039 to 0.078 µg/mL in [1]; 0.078 µg/mL against Escherichia coli; 0.312 to 0.625 µg/mL against Pseudomonas aeruginosa; 2.5 to 5 µg/mL in the assay with Klebsiella pneumoniae; 0.078 µg/mL with Micrococcus luteus. Also, the results for the MIC in the assay on Staphylococcus aureus and in the assay with Bacillus subtilis were 0.078 to 0.156 µg/mL and 0.39 µg/mL, respectively.
